# Test results published in patent US20240043389A1, “COMPOUNDS AND METHODS FOR INHIBITION OF BAX-MEDIATED CELL DEATH” (Albert Einstein College of Medicine, priority 2020, published 2024).
# Assays:
# BAX R145E = target: T1, BAX R145E (Homo sapiens, UniProt Q07812, R145E); assay: Liposomal release assay, BAX R145E mutant; format: biochemical; details: 250 nM BAX, 5 nM tBID
# T1 construct: Human full-length (1-192) wild-type BAX (Q07812); made in house; host or cells: E. coli BL21 (DE3) CodonPlus (DE3)-RIPL
# T1 sequence (Q07812 whole entry R145E): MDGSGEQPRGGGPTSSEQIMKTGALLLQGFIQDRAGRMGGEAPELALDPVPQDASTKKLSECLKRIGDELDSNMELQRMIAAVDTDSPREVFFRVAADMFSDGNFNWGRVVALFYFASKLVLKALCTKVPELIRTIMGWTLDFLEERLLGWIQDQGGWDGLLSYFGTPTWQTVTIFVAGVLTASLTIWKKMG
# Description: (§1) Liposomes were formed by extrusion of the suspension using Avanti Mini-Extruder (cat #610000) with polycarbonate membranes of 0.1 μm pore size (Avanti Polar Lipids). ANTS/DPX encapsulated liposomes were purified from non-encapsulated ANTS/DPX by gel filtration of a 10 mL CL2B-Sepharose (GE Healthcare Life Sciences) gravity flow column. […] Reactions were initiated by the addition of 10 μL of the encapsulated ANTS/DPX liposome stock. ANTS/DPX release was quantified based on the increase in fluorescence intensity that occurs when the ANTS fluorophore is separated from the DPX quencher upon release from the liposomes into solution. Fluorescence (λex=355 nm and λem=520 nm) was measured at 1-minute intervals at room temperature (22-25° C.) indicated using a Tecan Infinite M1000 plate reader. In the case of heat activation, reactions were setup as described in the absence of tBID or BIM, and experiments were recorded at 42° C. The percentage release of ANTS/DPX at any given time point was calculated as percentage release=((F−F0)/(F100−F0))(100), where F0 and F100 are baseline and maximal fluorescence, respectively. Triton X-100 (1%) was used to determine the maximum amount of liposomal release per assay and was set to 100%.
# BAX−/−MEFs = assay: STS-induced caspase 3/7 assay in BAX-/- MEFs; format: cell-based, mouse; details: MEFs expressing only BAK, 3 μM STS, 6 hr
# From the text: FIGS. 9a, 9b, 9c, 9d, 9e, and 9f are a set of diagrams showing that eltrombopag inhibits BAX translocation and BAX-mediated apoptosis in cells. […] BAX translocation is based on antibody-based detection of BAX and mitochondrial protein TOMM20. Representative confocal micrographs from three independent biological experiments. Scale bar, […]. […] Data represent ±SEM of three independent biological replicates. Two-sided t test, ****P<0.0001; ***P<0.001; **P<0.01; *P<0.05; ns, P>0.05. […] Actin and VDAC are loading controls for cytosolic and mitochondrial fractions, respectively. FIGS. 9d and 9e show a caspase 3/7 assay of BAK−/− mouse embryonic fibroblasts (MEFs) (FIG. 9d) and BAX−/−MEFs (FIG. 9e) in response to 3 μM STS and the presence or absence of various doses of EO for 6 hr. Data represent mean of n=3±SEM and are representative of three independent experiments. Two-sided t-test, **** P<0.0001; ***P<0.001;**P<0.01; *P<0.05; ns, P>0.05. […] Data represent mean of n=3±SEM.
# BAX R134E R145E = target: T2, BAX R134E R145E (Homo sapiens, UniProt Q07812, R134E/R145E); assay: Liposomal release assay, BAX R134E R145E mutant; format: biochemical; details: 250 nM BAX, 5 nM tBID; read-out: IC50, inhibition of liposomal release
# T2 construct: Human full-length (1-192) wild-type BAX (Q07812); made in house; host or cells: E. coli BL21 (DE3) CodonPlus (DE3)-RIPL
# T2 sequence (Q07812 whole entry R134E/R145E): as the sequence (Q07812 whole entry R145E) above, with R134E counted along it
# Description: as §1
# BAX [1] = target: T3, BAX (Homo sapiens, UniProt Q07812); assay: Competitive fluorescence polarization binding assay (FITC-BIM-SAHB displacement from BAX)
# T3 construct: Human full-length (1-192) wild-type BAX (Q07812); made in house; host or cells: E. coli BL21 (DE3) CodonPlus (DE3)-RIPL
# T3 sequence (Q07812 whole entry): as the sequence (Q07812 whole entry R145E) above, with E145R counted along it
# Description: Fluorescence polarization assays (FPA) were performed as previously described (Reyna, D. E., et al. Cancer Cell 32 490-505 (2017)). Direct binding isotherms of BIM-SAHB were measured by incubated FITC-BIM-SAHB (25 nM) with serial dilutions of full-length BAX alone or in the presence of 0.5 or 1 μM EO. Competition binding assays were performed by titrating EO into BAX (150 nM) and FITC-BIM-SAHB (25 nM). Measurements were taken at 10-minute intervals over 60 minutes on a TECAN F200 PRO microplate reader. Reported curves represent a 10-minute time point. KD values and IC50 were determined using GraphPad Prism nonlinear fit four-parameter agonist or antagonist versus response with restraints for 100% and 0% bound calculated by the mP of saturated BAX+FITC-BIM-SAHB and FITC-BIM-SAHB alone.
# BAX [2] = target: T3, BAX; assay: Liposomal permeabilization (release) assay; format: biochemical; details: compared with EO
# Description: as §1
# 15N-labeled BAX = target: T4, 15N-labeled BAX (Homo sapiens, UniProt Q07812); assay: 1H-15N HSQC NMR chemical shift perturbation; format: binding
# T4 construct: Human full-length (1-192) wild-type BAX (Q07812); made in house; host or cells: E. coli BL21 (DE3) CodonPlus (DE3)-RIPL
# T4 sequence (Q07812 whole entry): as the sequence (Q07812 whole entry R145E) above, with E145R counted along it
# Description: The uniformly ^15N-labeled protein samples were prepared by growing the bacteria in the minimal medium, as previously described (Uchime, O., et al. J Biol Chem 291, 89-102, (2016)). Unlabeled and ^15N-labeled protein samples were prepared in 50 mM potassium phosphate, 50 mM NaCl solution at pH 6.0 in 10% D20. All experiments were performed using an independent sample for each experimental measurement as a 400 μL sample in a 5-mm Shigemi; all samples were DMSO matched with 2% d6-DMSO. Correlation ^1H-^15N-HSQC spectra were recorded on ^15N-labeled BAX at 50 μM in the presence and absence of 100 μM of EO. NMR spectra were acquired at 25° C. on a Bruker 600 MHz spectrometer equipped with a cryoprobe, processed using TopSpin and analyzed using NMRView. […] The weighted average chemical shift perturbation (CSP) was calculated as √(L1δ^1H)^2+(L1δ^15N/5)^2)/2 in p.p.m. […] The significance threshold for backbone amide chemical shift changes was calculated based on the average chemical shift across all residues plus 0.5 or 1 s.d. Solvent-accessible surface area was probed by the addition of 10 mM hy-TEMPO (sigma) to 50 μM ^15N-labeled BAX with and without 100 μM EO measured using standard ^1H-^15N-HSQC with an increased recycle delay of 2 sec. PRE was calculated as the ratio of peak intensities of BAX in the presence of hy-TEMPO to BAX without hy-TEMPO (% intensity). […]
# platelets [3] = assay: Navitoclax-induced thrombocytopenia, platelet counts; format: in vivo, C57BL/6J mice; details: ABT-263 25 mg/kg single dose, oral gavage, within 24 hr
# platelets [4] = details: platelets isolated from treated patients; cited from earlier work
molecule,measurement,setting,value
"CC1=NN(c2ccc(C)c(C)c2)C(=O)/C1=N\Nc1cccc(-c2cccc(C(=O)O)c2)c1O [EO, eltrombopag]",IC50 relative to BAX WT,BAX R145E,more than double that of BAX WT
same,STS-induced apoptosis mediated by caspase 3/7 activity,BAX−/−MEFs,no effect
same,IC50,BAX R134E R145E,> 10 µM
"COc1c(NN=C2C(=O)N(c3cccc([N+](=O)[O-])c3)N=C2C)cccc1-c1cccc(C(=O)O)c1 [EO-2, 2′-methoxy-3′-(2-(3-methyl-1-(3-nitrophenyl)-5-oxo-1,5-dihydro-4H-pyrazol-4-ylidene)hydrazineyl)-[1,1′-biphenyl]-3-carboxylic acid]",competitive binding to the BAX trigger site (FP),BAX [1]; FIG. 7a,competitive binding
"COC(=O)c1cccc(-c2cccc(NN=C3C(=O)N(c4ccc(C)c(C)c4)N=C3C)c2O)c1 [EO-Methyl Ester, eltrombopag methyl ester]",IC50,"BAX [1]; BAX 150 nM, FITC-BIM-SAHB 25 nM, read-out: IC50, competition of FITC-BIM-SAHB by FPA",> 5 µM
same,inhibition of BAX in liposomal release assays,BAX [2],significantly diminished inhibition
same,chemical shift perturbations of 15N-labeled BAX,15N-labeled BAX,minimal CSPs
CC1(C)CCC(c2ccc(Cl)cc2)=C(CN2CCN(c3ccc(C(=O)NS(=O)(=O)c4ccc(N[C@H](CCN5CCOCC5)CSc5ccccc5)c(S(=O)(=O)C(F)(F)F)c4)cc3)CC2)C1 [navitoclax],platelet loss,platelets [3],significant platelet loss
romiplostim,resistance of patient platelets to ABT-263 (Navitoclax) induced cell death,platelets [4],not observed
